Test system: rats with middle cerebral artery occlusion (MCAO)
Assay: Forelimb placing test, MCAO rats, dose escalation study (Example 17)
Type: in vivo, Sprague Dawley rat
Settings: for Forelimb placing compared to vehicle: p<0.001
From the text: The limb placing tests were divided into forelimb and hindlimb tests. For the forelimb-placing test, the examiner held the rat close to a tabletop and scored the rat's ability to place the forelimb on the tabletop in response to whisker, visual, tactile, or proprioceptive stimulation. Similarly, for the hindlimb placing test, the examiner assessed the rat's ability to place the hindlimb on the tabletop in response to tactile and proprioceptive stimulation. Together, these tests reflect function and recovery in the sensorimotor systems (De Ryck et al., Brain Res 1992; 573:44-60). Separate sub-scores were obtained for each mode of sensory input and added to give total scores (for the forelimb placing test: 0=normal, 12=maximally impaired; for the hindlimb placing test: 0=normal; 6=maximally impaired). Scores were given in half-point increments (see below). Typically, there is a slow and steady recovery of limb placing behavior during the first month after stroke.
Forelimb placing test (0-12): • whisker placing (0-2); • visual placing (forward (0-2), sideways (0-2)) • tactile placing (dorsal (0-2), lateral (0-2)) • proprioceptive placing (0-2).
For each subtest, animals are scored as followed: • 0.0=immediate response • 0.5=response within 2 seconds • 1.0=response of 2-3 seconds • 1.5=response of >3 seconds • 2.0=no response
4-AP was evaluated for its ability to promote functional sensorimotor improvement following ischemic stroke in rats with stable motor deficits at times remote from their ischemic events. The animal model of ischemic stroke, i.e., the MCAO model, used in this example is the same as the animal model described in Example 2.
In the MCAO model recovery begins to plateau by 4 weeks after MCAO, at which time there are still measurable deficits in sensorimotor function. However, 4 weeks after MCAO there may still be slow continued endogenous recovery.
4-aminopyridine was dissolved in water for injection (WFI, Cellgro) and sterile filtered. […]

## Nc1ccncc1 [4-aminopyridine]
0.5 mg/kg b.i.d. p.o., Day 59, treatment started Day 56 after MCAO
  Forelimb placing compared to vehicle: significantly improved in forelimb placing
1 mg/kg b.i.d. p.o., Day 62
  Forelimb placing compared to vehicle: measureable improvement
2 mg/kg b.i.d. p.o., Day 65, p<0.0001
  Forelimb function compared to vehicle: significant improvements

Source: patent US20160067232A1, “METHODS FOR TREATING A STROKE-RELATED SENSORIMOTOR IMPAIRMENT USING AMINOPYRIDINES” (Acorda Therapeutics, Inc., priority 2011, published 2016)
